Experimental data published in patent US20150328249A1, “MODULATION OF MYOFIBER REPAIR BY ANTI-MYOSTATIN STRATEGIES AND/OR PPAR GAMMA LIGANDS, ALONE OR IN COMBINATION WITH STEM CELLS, FOR THE THERAPY OF CRITICAL LIMB ISCHEMIA AND OTHER ISCHEMIC PROCESSES AFFECTING THE SKELETAL MUSCLE” (LOS ANGELES BIOMEDICAL RESEARCH INSTITUTE AT HARBOR-UCLA …, priority 2012, published 2015).

Assays:
db/db diabetic mice = assay: CLI induced by ULFA in db/db diabetic mice, treated with MDSC and/or molsidomine; format: in vivo; conditions: 3 weeks
Procedure: CLI was induced by ULFA in db/db diabetic mice and treated as follows (n=8/group), for studying the effect of a long-acting NO donor, molsidomine: 1) Untreated (UT): vehicle; 2) MDSC (SC): MDSC into gastrocnemius; 3) MDSC-molsidomine (SC+Mol): as #2, and IP molsidomine (5 mg/kg/day); 4) Molsidomine (Mol) as in #3, no MDSC. Non-diabetic non-ULFA untreated (ND-UT) mice were controls.
At 3 weeks after initiating treatment, mortality, leg preservation, and limb loss/motion/ischemia were determined. Stem cell, myogenic, angiogenic, lipofibrosis, and neurogenesis markers were assayed in muscle tissue by quantitative histochemistry and immunohisto-chemistry and western blot.

[1] = tested on: rat models for insulin resistance and T2DM; assay: Low oral dose pioglitazone in rat models for insulin resistance and T2DM; format: in vivo

Compound | follistatin expression in the skeletal muscle (db/db diabetic mice) | stem cell number, expression of stem cell marker nuclear Oct 4a in the skeletal muscle (db/db diabetic mice; gastrocnemius of ischemic leg, quantitative western blot) | number of central nuclei (early stage of myofiber repair) (db/db diabetic mice; hematoxylin-eosin histochemistry) | fat infiltration in the skeletal muscle (Oil Red O) (db/db diabetic mice; quantitative histochemistry) | fibrosis, collagen deposition in the skeletal muscle (Masson trichrome) (db/db diabetic mice; quantitative histochemistry) | vascular endothelial growth factor (VEGF) expression in the skeletal muscle (angiogenesis) (db/db diabetic mice; quantitative western blot) | vascular endothelium, CD-31 expression in the skeletal muscle (db/db diabetic mice; quantitative western blot) | vascular endothelium, von Willebrandt factor expression in the skeletal muscle (db/db diabetic mice; quantitative western blot) | vascular smooth muscle marker calponin in the skeletal muscle (db/db diabetic mice; quantitative western blot) | side effects ([1]; glycemia-normalizing dose of 12 mg/kg/day) | body weight ([1]; low oral dose 0.6 mg/kg/day) | glycemia ([1]; low oral dose 0.6 mg/kg/day) [mg/dL]
CCOC(=O)[N-]c1cn(N2CCOCC2)n[o+]1 [molsidomine] | decrease | reduced this effect | slightly inhibitory | did not reduce | did not exert this noxious effect | also angiogenic | increase | increase | abolished the effect | – | – | –
CCc1ccc(CCOc2ccc(CC3SC(=O)NC3=O)cc2)nc1 (stereo not drawn) [pioglitazone] | – | – | – | – | – | – | – | – | – | obesity and fat infiltration in the tissues | does not exert glycemic control or increase body weight | 250 to 300
